One data set has as its target T1, hPPARβ (Homo sapiens, UniProt Q03181).
T1 sequence (Q03181 171-441 limits assumed): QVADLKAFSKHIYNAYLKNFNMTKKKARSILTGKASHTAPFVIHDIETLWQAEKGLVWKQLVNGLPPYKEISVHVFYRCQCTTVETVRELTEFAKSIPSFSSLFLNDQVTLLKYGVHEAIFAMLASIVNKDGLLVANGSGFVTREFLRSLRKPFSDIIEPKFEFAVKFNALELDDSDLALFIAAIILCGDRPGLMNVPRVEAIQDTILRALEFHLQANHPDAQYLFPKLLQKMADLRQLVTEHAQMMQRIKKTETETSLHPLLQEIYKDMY
The data set can be described thus: Transient transfection assay in HepG2 cells, Gal4-hPPARβ chimeric receptor, luciferase reporter. The class given is cell-based. The procedure: 1. Test A. Transient Transfections Assay using the HepG2 Hepatoma Cell Line.
HepG2 cells were transiently transfected with an expression plasmids encoding hPPARα, hPPARβ or mPPARγ chimeric receptors and a reporter containing the yeast upstream activating sequence (UAS) upstream of the viral E1B promoter controlling a luciferase reporter gene. In addition, the plasmid pRSVβ-gal was used to control for transfection efficiency. HepG2 cells were grown in DMEM supplemented with 10% FBS and 1 μM non-essential amino acid. On the first day, cells were split into 100 mm dishes at 2.5×10^6/dish and incubated overnight at 37° C./5% CO2. On the second day the cells were transiently transfected with plasmid DNA encoding a chimeric receptor, the luciferase reporter gene; and β-gal. For each 100 mm dish, 15 μg of lucifease reporter (PG5E1b) DNA, 15 μg of Gal4-PPAR chimeric receptor DNA, and 1.5 μg of β-gal plasmid DNA were mixed with 1.4 ml of opti-MEM in the tube. 28 μl of LipoFectamine-2000 reagent was added to 1.4 ml of opti-MEM in the tube, and incubate for 5 min at RT. The diluted Lipofectamine-2000 reagent was combined with the DNA mixture, and incubate for 20 min at RT. After fresh medium was added to each 100 mm dish of cells, 2.8 ml of Lipofectamine2000-DNA mixture was added dropwise to the 100 mm dish containing 14 ml of medium, and incubate 37° C. overnight. On day three cells were trypsinized off the 100 mm dishes and re-plated on 96 well plates. Cells were plated at 2.5×10^4 cells per well in 150 μl of media and 50 μl of compound diluted by media was added. The test compound added were in the range from 50 μM to 50 pM. After addition of compounds, the plates were incubated at 37° C. for 24 hours. Subsequently cells were washed with once with 100 μl of PBS, lysed, and processed for measuring luciferase and β-gal activity using Dual-Light luciferase kit from Tropix ®, according to the manufacturer's recommendations, on an EG&G Bethold MicroLumat LB96P luminometer. EC50 values were obtained using the GraphPad Prism™ program.

Setting [1] is: Hep G2-hBeta EC50, 24 hours incubation, read-out: EC50β nM (Group).

Each structure is given as a SMILES string. Where two headings read alike, the source gives them in different places.

In the case of `Cc1cc(SCc2ccc(-c3ccccc3)cc2)ccc1OCC(=O)O` [Example 2, [4-(Biphenyl-4-ylmethylsulfanyl)-2-methyl-phenoxy]-acetic acid], the melting point was 138 °C.

`COc1cc(OCC(=O)O)c(C)cc1SCc1ccc(-c2c(C)cc(C)cc2C)cc1` [Example 5, [5-Methoxy-2-methyl-4-(2′,4′,6′-trimethyl-biphenyl-4-ylmethylsulfanyl)-phenoxy]-acetic acid] yielded a melting point of 141 °C. At hPPARβ (setting [1]), the EC50 lay within 1000 to 2000 nM.

Take `O=C(O)COc1ccc(SCc2ccc(-c3ccc(C(F)(F)F)cc3)cc2)c2c1CCC2` [Example 12, [7-(4′-Trifluoromethyl-biphenyl-4-ylmethylsulfanyl)-indan-4-yloxy]-acetic acid]: the melting point fell in the range of 158 to 159 °C. In addition, on hPPARβ (setting [1]), the EC50 was under 300 nM.

In the case of `Cc1cc(SCc2ccc(OCc3ccccc3)cc2)ccc1OCC(=O)O` [Example 13, [4-(4-Benzyloxy-benzylsulfanyl)-2-methyl-phenoxy]-acetic acid], the melting point is 120 to 121 °C.

`Cc1cc(SCc2ccc(OCc3ccc(C(F)(F)F)cc3)cc2)ccc1OCC(=O)O` [Example 15, {2-Methyl-4-[4-(4-trifluoromethyl-benzyloxy)-benzylsulfanyl]-phenoxy}-acetic acid]: the melting point was found to be 133 °C. The EC50 at hPPARβ (setting [1]) is under 300 nM.

As to `Cc1cc(/C=C/c2ccc(-c3ccc(C(F)(F)F)cc3)cc2)ccc1OCC(=O)O` [Example 24, {2-Methyl-4-[2-(4′-trifluoromethyl-biphenyl-4-yl)-vinyl]-phenoxy}-acetic acid], the melting point was 243 to 245 °C.

With `O=C(O)COc1ccc(SCc2ccc(-c3ccc(C(F)(F)F)cn3)cc2)c2c1CCC2` [Example 26, {7-[4-(5-Trifluoromethyl-pyridin-2-yl)-benzylsulfanyl]-indan-4-yloxy}-acetic acid], the melting point was 220 °C (dec.). Besides, at hPPARβ (setting [1]), the EC50 was under 300 nM.

For `Cc1cc(SCc2ccc(-c3ccc(C(F)(F)F)cn3)cc2)c(Cl)cc1OCC(=O)O` [Example 37, {5-Chloro-2-methyl-4-[4-(5-trifluoromethyl-pyridin-2-yl)-benzylsulfanyl]-phenoxy}-acetic acid], the EC50 on hPPARβ (setting [1]) was under 300 nM.

Turning to `COc1cc(OCC(=O)O)c(C)cc1SCc1ccc(-c2ccc(C(F)(F)F)cc2)cc1C` [Example 39, [5-Methoxy-2-methyl-4-(3-methyl-4′-trifluoromethyl-biphenyl-4-ylmethylsulfanyl)-phenoxy]-acetic acid], on hPPARβ (setting [1]), the EC50 was under 300 nM.

Consider `O=C(O)COc1ccc(SCc2ccc(Cc3ccc(C(F)(F)F)cc3)cc2)c2c1CCC2` [Example 40, {7-[4-(4-trifluoromethyl-benzyl)-benzylsulfanyl]-indan-4-yloxy}-acetic acid], for which the EC50 on hPPARβ (setting [1]) lay within 500 to 1000 nM.

With `Cc1cc(SCc2ccc(Oc3ccccc3)cc2)ccc1OCC(=O)O` [Example 47, [2-Methyl-4-(4-phenoxy-benzylsulfanyl)-phenoxy]-acetic acid], on hPPARβ (setting [1]), the EC50 is over 5000 nM.

Consider `COc1cc(OCC(=O)O)c(C)cc1S(=O)(=O)Cc1ccc(-c2ccc(C(F)(F)F)cc2)cc1` [Example 50, [5-Methoxy-2-methyl-4-(4′-trifluoromethyl-biphenyl-4-ylmethanesulfonyl)-phenoxy]-acetic acid], for which the EC50 at hPPARβ (setting [1]) was 2000 to 5000 nM.

As for `COc1cc(OCC(=O)O)c(C)cc1[S+]([O-])Cc1ccc(-c2ccc(C(F)(F)F)cc2)cc1` (stereo not shown) [Example 51, [5-Methoxy-2-methyl-4-(4′-trifluoromethyl-biphenyl-4-ylmethanesulfinyl)-phenoxy]-acetic acid], on hPPARβ (setting [1]), the EC50 fell in the range of 2000 to 5000 nM.

On to `COc1cc(OCC(=O)O)c(C)cc1SCCc1cn(Cc2ccc(C(F)(F)F)cc2)c2ccccc12` [Example 54, (5-Methoxy-2-methyl-4-{2-[1-(4-trifluoromethyl-benzyl)-1H-indol-3-yl]-ethylsulfanyl}-phenoxy)-acetic acid], for which, at hPPARβ (setting [1]), the EC50 lay in the range of 300 to 500 nM.

`Cc1cc(SCc2ccc(OCc3ccc(Cl)cc3)cc2)ccc1OCC(=O)O` [Example 58, {4-[4-(4-Chloro-benzyloxy)-benzylsulfanyl]-2-methyl-phenoxy}-acetic acid] displayed a melting point of 164 °C. In addition, the EC50 at hPPARβ (setting [1]) was in the range of 2000 to 5000 nM.

In turn, `Cc1cc(SCc2ccc(OCc3ccccn3)cc2)ccc1OCC(=O)O` [Example 60, {2-Methyl-4-[4-(pyridine-2-ylmethoxy)-benzylsulfanyl]-phenoxy}-acetic acid] had a melting point of 150 °C. Besides, at hPPARβ (setting [1]), the EC50 is over 5000 nM.

Compound `Cc1cc(SCc2ccc(OCc3ccc(C(F)(F)F)cc3)cc2)c(Cl)cc1OCC(=O)O` [Example 61, {5-Chloro-2-methyl-4-[4-(4-trifluoromethyl-benzyloxy)-benzylsulfanyl]-phenoxy}-acetic acid] had a melting point of 142 to 143 °C. The EC50 at hPPARβ (setting [1]) lay in the range of 300 to 500 nM.

`Cc1cc(SCc2ccc(OCc3ccc(C(F)(F)F)cc3)cc2)c2c(c1OCC(=O)O)CCC2` [Example 64, {5-Methyl-7-[4-(4-trifluoromethyl-benzyloxy)-benzylsulfanyl]-indan-4-yloxy}-acetic acid] registered a melting point of 165 to 167 °C. In addition, on hPPARβ (setting [1]), the EC50 was over 5000 nM.

As to `O=C(O)COc1ccc(SCc2ccc(OCc3ccc(F)cc3)cc2)c2c1CCC2` [Example 65], the melting point was in the range of 153 to 155 °C. On hPPARβ (setting [1]), the EC50 was over 5000 nM.

Turning to `O=C(O)COc1ccc(SCc2ccc(OCc3ccc(F)cc3F)cc2)c2c1CCC2` [Example 66, {7-[4-(2,4-Difluoro-benzyloxy)-benzylsulfanyl]-indan-4-yloxy}-acetic acid], the melting point was 158 to 160 °C. Besides, the EC50 on hPPARβ (setting [1]) is over 5000 nM.

The compound `CC(C)(C)c1ccc(COc2ccc(CSc3ccc(OCC(=O)O)c4c3CCC4)cc2)cc1` [Example 67, {7-[4-(4-tert-Butyl-benzyloxy)-benzylsulfanyl]-indan-4-yloxy}-acetic acid] showed a melting point of 152 to 153 °C. This compound also displayed an EC50 on hPPARβ of under 300 nM.

Regarding `COc1ccc(COc2ccc(CSc3ccc(OCC(=O)O)c4c3CCC4)cc2)cc1` [Example 68, {7-[4-(4-Methoxy-benzyloxy)-benzylsulfanyl]-indan-4-yloxy}-acetic acid], the melting point is 183 to 185 °C. For the same compound, the EC50 at hPPARβ (setting [1]) lay within 1000 to 2000 nM.

`O=C(O)COc1ccc(SCc2ccc(OCc3ccccc3)cc2)c2c1CCC2` [Example 69, [7-(4-Benzyloxy-benzylsulfanyl)-indan-4-yloxy]-acetic acid] yielded a melting point of 145 to 147 °C. The EC50 on hPPARβ (setting [1]) lay in the range of 2000 to 5000 nM.

As to `O=C(O)COc1ccc(SCc2ccc(OCc3ccc(Cl)cc3)cc2)c2c1CCC2` [Example 70, {7-[4-(4-Chloro-benzyloxy)-benzylsulfanyl]-indan-4-yloxy}-acetic acid], the melting point lay within 170 to 172 °C. For the same compound, at hPPARβ (setting [1]), the EC50 was in the range of 500 to 1000 nM.

As for `O=C(O)COc1ccc(SCc2ccc(-c3ccc(C(F)(F)F)cn3)cc2)c2c1CCCO2` [Example 86, {8-[4-(5-Trifluoromethyl-pyridine-2-yl)-benzylsulfanyl]-chroman-5-yloxy}-acetic acid], the melting point was 178 to 179 °C.

`O=C(O)COc1ccc(SCc2cc(-c3ccc(C(F)(F)F)cc3)on2)c2c1CCCO2` [Example 94, {8-[5-(4-Trifluoromethyl-phenyl)-isoxazol-3-ylmethylsulfanyl]-chroman-5-yloxy}-acetic acid] showed a melting point of 171 to 173 °C.

Consider `O=C(O)COc1ccc(SCc2cc(-c3ccc(Cl)cc3)on2)c2c1CCCO2` [Example 95, {8-[5-(4-Chloro-phenyl)-isoxazol-3-ylmethylsulfanyl]-chroman-5-yloxy}-acetic acid], for which the melting point fell in the range of 181 to 183 °C.

Consider `Cc1cc(SCc2cc(-c3ccc(Cl)cc3)on2)ccc1OCC(=O)O` [Example 96, {4-[5-(4-Chloro-phenyl)-isoxazol-3-ylmethylsulfanyl]-2-methyl-phenoxy}-acetic acid], for which the melting point was 152 to 153 °C.

With `O=C(O)COc1ccc(SCc2cc(-c3ccc(C(F)(F)F)cc3)on2)c2c1CCCC2` [Example 102, {4-[5-(4-trifluoromethyl-phenyl)-isoxazol-3-ylmethylsulfanyl]-5,6,7,8-tetrahydro-naphthalen-1-yloxy}-acetic acid], the melting point is 167 to 170 °C.

Source of the values: patent US6964983B2, “Compounds that modulate PPAR activity and methods for their preparation” (Warner-Lambert Company, LLC, priority 2002, dated 2005).
